These results are taken from patent publication US9232796B2, “Herbicidal compositions comprising 4-amino-3-chloro-5-fluoro-6-(4-chloro-2-fluoro-3-methoxyphenyl) pyridine-2-carboxylic acid or a derivative thereof and acetyl-CoA carboxylase (ACCase) inhibitors” (DOW AGROSCIENCES LLC, priority 2012, dated 2016).

One assay concerns BRAPP. Description: Example I postemergence foliar-applied, greenhouse, direct seeded rice weeds. Type of assay: in vivo, Brachiaria platyphylla (Griseb.) Nash. The text has this: Seeds or nutlets of the desired test plant species were planted in a soil matrix prepared by mixing a loam or sandy loam soil (e.g., 28.6 percent silt, 18.8 percent clay, and 52.6 percent sand, with a pH of about 5.8 and an organic matter content of about 1.8 percent) and calcareous grit in an 80 to 20 ratio. The soil matrix was contained in plastic pots with a volume of 1 quart and a surface area of 83.6 square centimeters (cm^2). When required to ensure good germination and healthy plants, a fungicide treatment and/or other chemical or physical treatment was applied. The plants were grown for 8-22 days in a greenhouse with an approximate 14 hr. photoperiod which was maintained at about 29° C. during the day and 26° C. during the night. Nutrients (Peters Excel® 15-5-15 5-Ca 2-Mg and iron chelate) were applied in the irrigation solution as needed and water was added on a regular basis. Supplemental lighting was provided with overhead metal halide 1000-Watt lamps as necessary. The plants were employed for testing when they reached the first through fourth true leaf stage.
Treatments consisted of the acid or esters of 4-amino-3-chloro-5-fluoro-6-(4-chloro-2-fluoro-3-methoxy-phenyl)pyridine-2-carboxylic acid (Compound A), each formulated as an SC (suspension concentrate), and various herbicidal components alone and in combination.
Other herbicidal components were applied on an acid equivalent (ae) or active ingredient (ai) basis and included acetyl coA carboxylase (ACCase)-inhibiting herbicides (cyclohexanedione and aryloxyphenoxypropionate chemical classes) cyhalofop-butyl formulated as Clincher® SF (285 gr ai/L EC), diclofop-methyl formulated as Hoelon® 3EC, fenoxaprop-p-ethyl+isoxadifen-ethyl formulated as RiceStar® HT (0.58 lb./gal EC), fenoxaprop-p-ethyl+mefenpyr diethyl formulated as Puma® IEC, metamifop formulated as Metamifop EC, haloxyfop-methyl formulated as Gallant Super®, fluazifop-p-butyl formulated as Fusilade® DX, quizalofop-p-ethyl formulated as Assure® II, profoxydim formulated as Aura® 20EC, clethodim applied as Intensity®, sethoxydim formulated as Poast®, and tralkoxydim formulated as Achieve®.
Treatment requirements were calculated based upon the rates being tested, the concentration of active ingredient or acid equivalent in the formulation, and a 12 mL application volume at a rate of 187 L/ha.
For treatments comprised of formulated compounds, measured amounts of compounds were placed individually in 25 mL glass vials and diluted in a volume of 1.25% (v/v) Agri-Dex® crop oil concentrated to obtain 12× stock solutions. […] Application solutions were prepared by adding an appropriate amount of each stock solution (e.g., 1 mL) and diluted to the appropriate final concentrations with the addition of 10 mL of an aqueous mixture of 1.25% (v/v) crop oil concentrate so that the final spray solutions contained 1.25+/−0.05% (v/v) crop oil concentrate.
All stock solutions and applications solutions were visually inspected for compound compatibility prior to application. Spray solutions were applied to the plant material with an overhead Mandel track sprayer equipped with a 8002E nozzles calibrated to deliver 187 L/ha over an application area of 0.503 m^2 at a spray height of 18 to 20 inches (46 to 50 cm) above average plant canopy height. Control plants were sprayed in the same manner with the solvent blank.
The treated plants and control plants were placed in a greenhouse as described above and watered by sub-irrigation to prevent wash-off of the test compounds. After approximately 3 weeks, the condition of the test plants as compared with that of the untreated plants was determined visually and scored on a scale of 0 to 100 percent where 0 corresponds to no injury or growth inhibition and 100 corresponds to complete kill. […]

The next assay has as its system AVEFA. As to the kind of experiment: Example IV postemergence foliar-applied, greenhouse, cereal crops weeds. In kind it is in vivo, Avena fatua L. The procedure: (§1) Seeds of the desired test plant species were planted in Sun Gro MetroMix® 306 planting mixture, which typically has a pH of 6.0 to 6.8 and an organic matter content of about 30 percent, in plastic pots with a surface area of 103.2 square centimeters (cm^2). When required to ensure good germination and healthy plants, a fungicide treatment and/or other chemical or physical treatment was applied. The plants were grown for 7-36 days in a greenhouse with an approximate 14 hour photoperiod which was maintained at about 18° C. during the day and about 17° C. during the night. Nutrients and water were added on a regular basis and supplemental lighting was provided with overhead metal halide 1000-Watt lamps as necessary. The plants were employed for testing when they reached the second or third true leaf stage.
(§2) Treatments consisted of the benzyl ester of 4-amino-3-chloro-5-fluoro-6-(4-chloro-2-fluoro-3-methoxy-phenyl)pyridine-2-carboxylic acid (Compound A), formulated as an SC, a second cereal herbicide alone and then both in combination.
(§3) Other herbicidal components were applied on an active ingredient basis and included acetyl-CoA carboxylase (ACCase)-inhibiting herbicides clodinafop-propargyl, fenoxaprop-P-ethyl, pinoxaden and tralkoxydim.
(§4) Measured aliquots of benzyl ester of 4-amino-3-chloro-5-fluoro-6-(4-chloro-2-fluoro-3-methoxy-phenyl)pyridine-2-carboxylic acid (Compound A) were placed in 25 milliliter (mL) glass vials and diluted in a volume of 1.25% (v/v) Agri-Dex® crop oil concentrate to obtain stock solutions. Compound requirements are based upon a 12 mL application volume at a rate of 187 liters per hectare (L/ha). Spray solutions of the second cereal herbicide and experimental compound mixtures were prepared by adding the stock solutions to the appropriate amount of dilution solution to form 12 mL spray solution with active ingredients in two- and three-way combinations. Formulated compounds were applied to the plant material with an overhead Mandel track sprayer equipped with an 8002E nozzle calibrated to deliver 187 L/ha over an application area of 0.503 square meters (m^2) at a spray height of 18 inches (46 cm) above average plant canopy. Control plants were sprayed in the same manner with the solvent blank.
(§5) The treated plants and control plants were placed in a greenhouse as described above and watered by sub-irrigation to prevent wash-off of the test compounds. After 20-22 days, the condition of the test plants as compared with that of the control plants was determined visually and scored on a scale of 0 to 100 percent where 0 corresponds to no injury and 100 corresponds to complete kill. […]

The next assay has as its system ALOMY. Described as above. Type of assay: in vivo, Alopecurus myosuroides Huds. How it is done:
as §1, §2, §3, §4, §5

The mark [1] stands for this setting: Compound A Benzyl Ester 5 gai/ha.
The mark [2] stands for this setting: Compound A Benzyl Ester 10 gai/ha.

`COc1c(Cl)ccc(-c2nc(C(=O)OCc3ccccc3)c(Cl)c(N)c2F)c1F` [Compound A Benzyl Ester, benzyl ester of 4-amino-3-chloro-5-fluoro-6-(4-chloro-2-fluoro-3-methoxy-phenyl)pyridine-2-carboxylic acid]: the “Visual Weed Control (%) - 20 DAA BRAPP Obs” value in the assay with BRAPP (4.38 gae/ha) was 50%; in the assay on BRAPP (8 gae/ha) it was 70%; in the assay with BRAPP (8.75 gae/ha), 70%; in the assay with BRAPP (16 gae/ha) it was 75%; in the assay with BRAPP (32 gae/ha), 90%. The “Visual Weed Control (%) - 21 DAA AVEFA Obs” value in the assay on AVEFA (setting [1]) and with AVEFA (setting [2]) was 0% each time. Further, the “Visual Weed Control (%) - 21 DAA ALOMY Obs” value in the assay on ALOMY (setting [1]) and in the assay with ALOMY (setting [2]) was 0% each time.
